From patent publication US20070122810A1 (priority 2003, published 2007)
Where two headings read alike, the source gives them in different places.

System: tumor cell suspension (glioma samples)
[1] = FIG. 5, example A, tumor located near normal brain tissue in phylogenetic tree, 8 hours incubation, about 1/10 of highest blood concentration
[2] = FIG. 5, example B, tumor located near normal brain tissue in phylogenetic tree, 8 hours incubation, about 1/10 of highest blood concentration

Description: These drugs were classified into five following categories by pharmacological mechanism. • Alkylating agents: • 4-hydroperoxy-cyclophosphamide (CPM)(1 μg/ml), 4-hydroperoxy-ifosfamide (IFOS) (I μg/ml), melphalan (MPL) (0.5 μg/ml), carboquone (CQ) (0.1 μg/ml), nimustine (ACNU) (2 μg/ml), ranimustine (MCNU) (2 μg/ml), cisplatinum (CDDP) (0.5 μg/ml) and carboplatin (JM-8) (4 μg/ml) • Antimetabolites: • Methotrexate (MTX) (3 μg/ml), 5-fluoro uracil (5-FU) (10 μg/ml), thioinosine (6-MRP) (3μg/ml) and cytosine arabinoside (CA) (4 μg/ml) • Antibiotics: • Mitomycin C (MMC) (0.2 μg/ml), bleomycin (BLM) (1 μg/ml), peplomycin (PEP) (0.5 μg/ml), chromomycin A3 (TM) (0.01 μg/ml) and neocarsinostatin (NCS) (0.15 μg/ml) • Topoisomerase inhibitors: • Actinomycin D (ACD) (0.01 μg/ml), aclarubicin (ACR) (0.6 μg/ml), adriamycin (ADM) (0.3 μg/ml), daunomycin (DM) (0.6 μg/ml), pirarubicin (THP) (0.3 μg/ml), epirubicin (4′-EPI) (0.4 μg/ml), mitoxantrone (MIT) (0.06 μg/ml), etoposide (VP-16) (3 μg/ml) and camptothecine (CPT-11) (3 μg/ml) • Microtubule Inhibitors: • Vincristine (VCR) (0.1 μg/ml), vinblastin (VLB) (0.1 μg/ml), vindesin (VDS) (0.1 μg/ml) and paclitaxel (TAX) (0.6 μg/ml)
The in vitro concentrations of these drugs were set to about 1/10 of the highest blood concentration when administered at a dose clinically recommended, and differences in the reaction by dose were evaluated for 10 selected drugs (CPM, ACNU, CDDP, PEP, ADM, VP-16, CA, TAX, VCR). The cultured samples of these were mixed in a phosphate buffered saline (pH 7.2)/0.1% Triton X-100/0.1 mg/ml RNase/0.01% sodium azide for 15 minutes and subsequently mixed with 50 g/ml of propidium iodide (Sigma,St.Louis, Mo.) for 5 minutes. The isolated nuclei were analyzed with flow cytometer (FACScan:Becton Dickinson, Mountain view, Calif.). The efficacy of a drug was judged by shifting the nucleus of apoptosis to a low diploid (sub-G1) region and comparing reverse decrease of the peak of the thus incorporated diploid with decrease of untreated control cells. […] Decomposition and condensation of chromatin were judged as a marker of apoptosis and quantitatively evaluated by Fisher's exact test.

Structure (SMILES) | efficacy of drug in drug sensitivity test [1] | efficacy of drug in drug sensitivity test [2] | efficacy of drug in drug sensitivity test (FIG. 5, example C, tumor located slightly away from normal brain tissue in phylogenetic tree) | drug sensitivity of tumors having sensitivity to ACNU (tumors having sensitivity to ACNU)
Cc1ncc(CNC(=O)N(CCCl)N=O)c(N)n1 [ACNU, nimustine] | effective | effective | – | –
O=P1(N(CCCl)CCCl)NC(OO)CCO1 (stereo not shown) [CPM] | effective | effective | – | –
CC(=O)O[C@H]1C(=O)[C@@]2(C)[C@H]([C@H](OC(=O)c3ccccc3)[C@]3(O)C[C@H](OC(=O)[C@H](O)[C@@H](NC(=O)c4ccccc4)c4ccccc4)C(C)=C1C3(C)C)[C@]1(OC(C)=O)CO[C@@H]1C[C@@H]2O [TAX, paclitaxel] | – | effective | – | –
CC[C@]1(O)C[C@H]2CN(CCc3c([nH]c4ccccc34)[C@@](C(=O)OC)(c3cc4c(cc3OC)N(C=O)[C@H]3[C@@](O)(C(=O)OC)[C@H](OC(C)=O)[C@]5(CC)C=CCN6CC[C@]43[C@@H]65)C2)C1 [VCR, vincristine] | – | – | effective | generally resistant
